Experimental data from EP4748373A1, “PHARMACEUTICAL COMPOSITION CONTAINING HETEROCYCLIC COMPOUND” (Sagimet Biosciences Inc., priority 2023, dated 2025).
In brackets after ≈: the same amount, converted by molar mass. Each block holds one compound with its values, some of them ahead of it.

Assay: equilibrium solubility experiments in buffer media at different pH conditions
Format: physicochemical
Settings: for solubility at 1 h / solubility at 22 h: buffer media, thermodynamic from solid
From the text: Additionally, the present invention conducted equilibrium solubility experiments of the monohydrate crystalline API, amorphous API, and hot-melt extrudate dispersion intermediate in buffer media at different pH conditions. Table 3. Summary of equilibrium solubility (µg/ml) of monohydrate crystalline API, amorphous API, and hot-melt extrudate dispersion intermediate

[1] = pH 1.2, simulated gastric fluid, pH 1.2 buffer
[2] = pH 2, simulated gastric fluid, pH 2.0 buffer
[3] = pH 4, aqueous buffer, pH 4.0 buffer
[4] = pH 4.5, aqueous buffer, pH 4.5 buffer
[5] = pH 5, aqueous buffer, pH 5.0 buffer
[6] = pH 6, aqueous buffer, pH 6.0 buffer
[7] = pH 6.8, aqueous buffer, pH 6.8 buffer
[8] = pH 7.5, aqueous buffer, pH 7.5 buffer

1-h solubility (pH 1.2 buffer): 50.93 µg/mL | 22-h solubility (pH 1.2 buffer): 48.62 µg/mL | 1-h solubility (pH 2.0 buffer): 4.52 µg/mL | 22-h solubility (pH 2.0 buffer): 4.45 µg/mL | 1-h solubility (pH 3.0 buffer): 2.14 µg/mL | 22-h solubility (pH 3.0 buffer): 2.14 µg/mL | 1-h solubility (pH 4.0 buffer): 0.76 µg/mL | 22-h solubility (pH 4.0 buffer): 0.74 µg/mL | 1-h solubility (pH 4.5 buffer): 0.65 µg/mL | 22-h solubility (pH 4.5 buffer): 0.57 µg/mL | 1-h solubility (pH 5.0 buffer): 0.51 µg/mL | 22-h solubility (pH 5.0 buffer): 0.42 µg/mL | 1-h solubility (pH 6.0 buffer): 0.46 µg/mL | 22-h solubility (pH 6.0 buffer): 0.44 µg/mL | 1-h solubility (pH 6.8 buffer): 0.46 µg/mL | 22-h solubility (pH 6.8 buffer): 0.45 µg/mL | 1-h solubility (pH 7.5 buffer): 0.54 µg/mL | 22-h solubility (pH 7.5 buffer): 0.48 µg/mL
Compound: Cc1nnc(-c2cc(C(=O)N3CCC(c4ccc(C#N)cc4)CC3)c(C)cc2C2CCC2)[nH]1 [Compound of formula (I) (amorphous API), 4-[1-[4-cyclobutyl-2-methyl-5-(5-methyl-1H-1,2,4-triazol-3-yl)benzoyl]piperidin-4-yl]benzonitrile]

22-h solubility (pH 3.0 buffer): 0.97 µg/mL
Compound: Cc1nnc(-c2cc(C(=O)N3CCC(c4ccc(C#N)cc4)CC3)c(C)cc2C2CCC2)[nH]1 [Compound of formula (I) (monohydrate crystalline form)] [4-[1-[4-cyclobutyl-2-methyl-5-(5-methyl-1H-1,2,4-triazol-3-yl)benzoyl]piperidin-4-yl]benzonitrile]

solubility at 1 h [1]: 30.3 µg/mL (≈ 68.9 µM) | solubility at 22 h [1]: 27.2 µg/mL (≈ 61.8 µM) | solubility at 1 h [2]: 3.57 µg/mL (≈ 8.12 µM) | solubility at 22 h [2]: 3.22 µg/mL (≈ 7.33 µM) | solubility at 1 h (pH 3, aqueous buffer, pH 3.0 buffer): 1.07 µg/mL (≈ 2.43 µM) | solubility at 1 h [3]: 0.68 µg/mL (≈ 1.55 µM) | solubility at 22 h [3]: 0.6 µg/mL (≈ 1.36 µM) | solubility at 1 h [4]: 0.6 µg/mL (≈ 1.36 µM) | solubility at 22 h [4]: 0.59 µg/mL (≈ 1.34 µM) | solubility at 1 h [5]: 0.47 µg/mL (≈ 1.07 µM) | solubility at 22 h [5]: 0.51 µg/mL (≈ 1.16 µM) | solubility at 1 h [6]: 0.5 µg/mL (≈ 1.14 µM) | solubility at 22 h [6]: 0.45 µg/mL (≈ 1.02 µM) | solubility at 1 h [7]: 0.44 µg/mL (≈ 1 µM) | solubility at 22 h [7]: 0.42 µg/mL (≈ 0.955 µM) | solubility at 1 h [8]: 0.42 µg/mL (≈ 0.955 µM) | solubility at 22 h [8]: 0.43 µg/mL (≈ 0.978 µM)
Compound: Cc1nnc(-c2cc(C(=O)N3CCC(c4ccc(C#N)cc4)CC3)c(C)cc2C2CCC2)[nH]1 [4-[1-[4-cyclobutyl-2-methyl-5-(5-methyl-1H-1,2,4-triazol-3-yl)benzoyl]piperidin-4-yl]benzonitrile]
